These results are taken from PubChem BioAssay AID463203 (Broad Institute, 2010).

Each structure is given as a SMILES string. The source made the active and inactive calls.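 The calls were made as follows: active = more than half of replicate measurements showing over 20% loss of kinase signal relative to plate controls; inconclusive = some but at most half of replicates over 20% loss; inactive = no replicate over 20% signal loss.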

In this test the target is Glycogen synthase kinase-3 alpha (Homo sapiens) (UniProt P49840). Nature of the test: concentration-response blocking of human GSK3A – biochemical, luminescence, cell-free homogeneous, retest, dose response (AID 463203). Conditions: GSK-3 alpha enzyme, ADP-Glo luminescence, 60 min.
Glycogen synthase kinase-3 alpha (Homo sapiens), sequence (P49840 whole entry, looked up): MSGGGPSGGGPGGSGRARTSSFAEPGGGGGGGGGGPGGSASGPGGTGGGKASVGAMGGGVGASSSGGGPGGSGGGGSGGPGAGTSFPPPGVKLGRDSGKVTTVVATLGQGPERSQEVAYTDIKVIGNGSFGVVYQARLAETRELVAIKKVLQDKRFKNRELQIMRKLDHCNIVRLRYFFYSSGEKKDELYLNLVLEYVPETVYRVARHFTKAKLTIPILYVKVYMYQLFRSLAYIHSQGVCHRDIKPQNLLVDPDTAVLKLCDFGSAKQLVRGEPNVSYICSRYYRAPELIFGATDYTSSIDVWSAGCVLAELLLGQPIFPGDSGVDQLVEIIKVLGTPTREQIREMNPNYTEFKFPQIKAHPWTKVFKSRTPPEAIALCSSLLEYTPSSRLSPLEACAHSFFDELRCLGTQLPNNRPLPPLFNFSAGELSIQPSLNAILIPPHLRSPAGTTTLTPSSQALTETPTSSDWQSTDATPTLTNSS
Turning to `CCOC(=O)CN1CC23C=CC(O2)C(C(=O)O)C3C1=O` (stereo unspecified), the AC50 is > 30 µM (inactive).

Regarding `O=C(NCCCN1CCOCC1)c1ccc(Cl)cc1[N+](=O)[O-]`, the AC50 was > 30 µM (inactive).

Regarding `c1ccc2c(c1)c1ccccc1n1c(-c3ccc4c(c3)OCO4)nnc21`, the AC50 was > 30 µM (inactive).

With `Clc1ccc(CSc2nncn2-c2ccc3c(c2)OCCO3)cc1`, the AC50 was > 30 µM (inactive).

As to `COc1ccc(Br)cc1C(=O)Nc1ccc(NC(=O)c2ccco2)cc1`, the AC50 is > 30 µM (inactive).

Turning to `CC(C)c1c(C(=O)N/N=C/c2cccnc2)nnn1-c1nonc1N`, the AC50 was > 30 µM (inactive).

Consider `Cc1ccc(S(=O)(=O)N(CC(O)CN2CCCC2)c2ccccc2)cc1` (stereo unspecified), for which the AC50 was > 30 µM (inactive).

Take `N#Cc1sc2nc(-c3cccs3)cc(-c3ccccc3)c2c1N`: the AC50 is > 30 µM (inactive).

For the compound `O=[N+]([O-])c1cccnc1N1CCCNCC1`, the AC50 was > 30 µM (inactive).

`CCC(=O)c1ccc(OCC(O)CN2CCCCC2)cc1` (stereo unspecified): the AC50 was > 30 µM (inactive).

Take `Cc1onc(-c2c(F)cccc2Cl)c1C(=O)OCC(=O)Nc1c(C)n(C)n(-c2ccccc2)c1=O`: the AC50 is > 30 µM (inactive).

`Fc1ccc(Nc2ncnc3ccccc23)cc1`: the AC50 was > 30 µM (inactive).

Regarding `COc1ccc(OC)c(C2CC(=O)N3CN(c4cccc(Cl)c4)CSC3=C2C#N)c1` (stereo unspecified), the AC50 was > 30 µM (inactive).

For `CC(C)C(=O)Nc1cccc2nsnc12`, the AC50 is > 30 µM (inactive).

`CCOc1ccc2[nH]cc(S(=O)(=O)c3ccc(C)cc3)c(=O)c2c1`: the AC50 was > 30 µM (inactive).

Regarding `CCCCn1c(O)c(C=NCCCn2ccnc2)c(=O)[nH]c1=O`, the AC50 was 5.81 µM.

For `CCn1c(C)nc2cc(-c3nnc(-c4c(-c5ccccc5)noc4C)o3)ccc21`, the AC50 was > 30 µM (inactive).

On to `CCOC(=O)c1cc(C)sc1NC(=O)C1CCC1`, for which the AC50 is > 30 µM (inactive).

Regarding `Cc1ccc(C(=O)N/N=c2\oc3ccccc3cc2C(N)=O)cc1`, the AC50 was > 30 µM (inactive).

For the compound `N#CC1=C2SCN(c3ccccc3)CN2C(=O)CC1c1c(Cl)cccc1Cl` (stereo unspecified), the AC50 was > 30 µM (inactive).

In the case of `Cc1onc(-c2ccccc2Cl)c1C(=O)Nc1cccc(-c2nc3ncccn3c2C)c1`, the AC50 is > 30 µM (inactive).

`CC(=O)Oc1cc2c3c(c1)/C(=C1/SC(=S)NC1=O)C(=O)N3C(C)(C)C=C2C`: the AC50 is > 30 µM (inactive).

For the compound `CCOC(=O)c1sc(NC(=O)CN2C(=O)NC3(CCC(C)CC3)C2=O)c(C(=O)OCC)c1C` (stereo unspecified), the AC50 was > 30 µM (inactive).

As for `CSc1ncccc1-c1nc2ccccc2[nH]1`, the AC50 was > 30 µM (inactive).

In the case of `CCOc1ccc(S(=O)(=O)c2c(C(=O)c3ccc(C)cc3)cnc3cc4c(cc23)OCCO4)cc1`, the AC50 is > 30 µM (inactive).

Consider `CCCCOC(=O)n1ccc(C(=O)Nc2ccccc2OC)n1`, for which the AC50 was 29.6 µM.

As to `S=C(Nc1ccccc1)Nc1ccc2cn[nH]c2c1`, the AC50 was 24.9 µM.

Consider `Cc1nc(Nc2ccc(S(N)(=O)=O)cc2)oc1C`, for which the AC50 was > 30 µM (inactive).

Turning to `CCOC(=O)CCc1c(C)c2ccc(O)cc2oc1=O`, the AC50 was > 30 µM (inactive).

With `Cc1cccc(-c2nnc3n2N=C(c2ccccc2)CS3)c1`, the AC50 was > 30 µM (inactive).

For `CCOc1ccccc1C1N(c2ccc(OC)cc2)C(=O)C2CCCN21` (stereo unspecified), the AC50 was > 30 µM (inactive).

In the case of `Cc1ccc(Sc2ccc(NC(=O)CCl)cc2)c(C)c1`, the AC50 was > 30 µM (inactive).

`CC(=O)C(Sc1ccc2nnc(-c3ccncc3)n2n1)C(C)=O`: the AC50 was > 30 µM (inactive).

For the compound `CC(=O)N(C)c1ccc(N=Cc2cc3c(cc2[N+](=O)[O-])OCO3)cc1`, the AC50 is 21.2 µM.

Consider `Cc1noc(C)c1CSc1nnc(-c2ccccc2)o1`, for which the AC50 was > 30 µM (inactive).

For `O=c1[nH]c(CN2CCN(CCO)CC2)nc2ccccc12`, the AC50 was > 30 µM (inactive).
